Among the data in PubChem BioAssay AID328 (DTP/NCI, 2004) are T/C values, retold here.

Several values for one entry are separate records, joined by “and”; a condition that tells them apart may be missing. Identical values can stand only once. Inconclusive results and toxic doses are left out. Positions of bridges follow the written chain, without caps; N, C: chain ends. Non-standard residues stand in square brackets, D forms with d. Residues, ends and D or L forms follow the SMILES beside them. Pip(4-oxo) = O=C1CCN[CH](C(=O)O)C1; NMeV = CN[CH](C(=O)O)C(C)C; Sar = CNCC(=O)O

The test deals with BDF1 mice, P388 leukemia ip, median survival T/C. Put plainly: NCI In Vivo Anticancer Drug Screen. Data for tumor model P388 Leukemia (intraperitoneal) in B6D2F1 (BDF1) mice. The settings on record: endpoint: median survival time, higher = longer survival. In a few lines: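 Survival ratio, drug arm over vehicle arm, in mice with a transplanted tumour.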
[1] abbreviates: dose: 100.0 mg/kg/injection, schedule: Q01DX009 (ip), vehicle: saline.
[2] abbreviates: dose: 100.0 mg/kg/injection, schedule: Q04DX003 (ip), vehicle: saline.
Setting [3] is: dose: 200.0 mg/kg/injection, schedule: Q01DX009 (ip), vehicle: saline.
The mark [4] stands for this setting: dose: 200.0 mg/kg/injection, schedule: Q04DX003 (ip), vehicle: saline.
Where [5] appears, read: dose: 400.0 mg/kg/injection, schedule: Q04DX003 (ip), vehicle: saline.
Setting [6] is: dose: 25.0 mg/kg/injection, schedule: Q01DX009 (ip), vehicle: saline with Tween-80.
Setting [7] is: dose: 100.0 mg/kg/injection, schedule: Q04DX003 (ip), vehicle: saline with Tween-80.
Where [8] appears, read: dose: 200.0 mg/kg/injection, schedule: Q04DX003 (ip), vehicle: saline with Tween-80.
[9] abbreviates: dose: 400.0 mg/kg/injection, schedule: Q04DX003 (ip), vehicle: saline with Tween-80.

`CCCCCCCC(=O)OCC(=O)[C@]1(O)Cc2c(O)c3c(c(O)c2[C@@H](OC2CC(N)C(O)C(C)O2)C1)C(=O)c1c(OC)cccc1C3=O` (stereo partly specified): the T/C is, setting by setting: (dose: 0.5 mg/kg/injection, schedule: Q01DX009 (ip), vehicle: water) 204 % of control; (dose: 1.0 mg/kg/injection, schedule: Q01DX009 (ip), vehicle: water) 254 % of control and 190 % of control; (dose: 1.0 mg/kg/injection, schedule: Q04DX003 (ip), vehicle: water) 207 % of control; (dose: 2.0 mg/kg/injection, schedule: Q01DX009 (ip), vehicle: water) 231 % of control and 311 % of control; (dose: 2.0 mg/kg/injection, schedule: Q04DX003 (ip), vehicle: water) 264 % of control; (dose: 2.5 mg/kg/injection, schedule: Q04DX003 (ip), vehicle: water) 116 % of control. The T/C (dose: 2.88 mg/kg/injection, schedule: Q04DX003 (ip), vehicle: water) was 215 % of control; the T/C (dose: 4.0 mg/kg/injection, schedule: Q01DX009 (ip), vehicle: water) was 90 % of control; the T/C (dose: 4.0 mg/kg/injection, schedule: Q04DX003 (ip), vehicle: water) is 271 % of control; the T/C (dose: 4.8 mg/kg/injection, schedule: Q04DX003 (ip), vehicle: water) is 339 % of control; the T/C (dose: 10.0 mg/kg/injection, schedule: Q04DX003 (ip), vehicle: water) was 174 % of control; the T/C (dose: 40.0 mg/kg/injection, schedule: Q04DX003 (ip), vehicle: water) was 100 % of control.
On to `O=C(O)c1cc2c(Br)cccc2c2cc(C(F)(F)F)ccc12`, for which the T/C runs as follows: (dose: 50.0 mg/kg/injection, schedule: Q04DX003 (ip), vehicle: saline sonified) 95 % of control; (dose: 100.0 mg/kg/injection, schedule: Q04DX003 (ip), vehicle: saline sonified) 100 % of control; (dose: 200.0 mg/kg/injection, schedule: Q04DX003 (ip), vehicle: saline sonified) 100 % of control.
With `CCOC(=O)Nc1cc(NC(c2ccccc2)c2ccccc2)c2[nH]cnc2n1`, the T/C (dose: 15.0 mg/kg/injection, schedule: Q04DX003 (ip), vehicle: saline with Tween-80) is 87 % of control and the T/C (dose: 60.0 mg/kg/injection, schedule: Q04DX003 (ip), vehicle: saline with Tween-80) was 108 % of control.
Consider `Nc1nc(=O)n(C2CC(O)C(CO)O2)cc1Br` (stereo unspecified), for which the T/C is 109 % of control (dose: 100.0 mg/kg/injection, schedule: Q01DX009 (ip), vehicle: saline with Tween-80); 90 % of control (dose: 200.0 mg/kg/injection, schedule: Q01DX009 (ip), vehicle: saline with Tween-80); 100 % of control (dose: 400.0 mg/kg/injection, schedule: Q01DX009 (ip), vehicle: saline with Tween-80).
`COc1cc(C=NC(CO)C(=O)O)ccc1O.COc1cc(C=NC(CO)C(=O)O)ccc1O.[Fe]` (stereo unspecified): the T/C reads like this: under setting [1], 100 % of control; under setting [2], 100 % of control; under setting [3], 100 % of control; under setting [4], 95 % of control; under setting [5], 95 % of control.
For `CCN(CC)C(=O)Cn1ccc(NC(C)=O)nc1=O`, the T/C under setting [1] is 104 % of control; the T/C under setting [2] is 95 % of control; the T/C under setting [3] was 86 % of control; the T/C under setting [4] is 100 % of control; the T/C (dose: 400.0 mg/kg/injection, schedule: Q01DX009 (ip), vehicle: saline) was 100 % of control; the T/C under setting [5] is 100 % of control.
As to `CCCCC(CC)COP(=O)(CC(CC)CCCC)OCC(CC)CCCC` (stereo unspecified), the T/C under setting [6] is 100 % of control.
With `CC12CCC3C(CCC4CC5(CCC43C)CO5)C1CCC2=O` (stereo unspecified), the T/C by setting is: under setting [7], 103 % of control; under setting [8], 103 % of control; under setting [9], 98 % of control.
`Cc1ccc(Nc2c3ccccc3nc3ccccc23)cc1`: the T/C by setting is: (dose: 100.0 mg/kg/injection, schedule: Q01DX001 (ip), vehicle: Klucel (hydroxypropylcellulose) (HPC)) 109 % of control; (dose: 200.0 mg/kg/injection, schedule: Q01DX001 (ip), vehicle: Klucel (hydroxypropylcellulose) (HPC)) 118 % of control; (dose: 400.0 mg/kg/injection, schedule: Q01DX001 (ip), vehicle: Klucel (hydroxypropylcellulose) (HPC)) 113 % of control.
Turning to `N=c1ccn2c(n1)OC1C(O)C(CO)OC12` (stereo unspecified), the T/C runs as follows: (dose: 39.0 mg/kg/injection, schedule: Q01DX008 (ip), vehicle: water) 173 % of control; (dose: 65.0 mg/kg/injection, schedule: Q01DX008 (ip), vehicle: water) 99 % of control; (dose: 108.0 mg/kg/injection, schedule: Q01DX008 (ip), vehicle: water) 224 % of control; (dose: 180.0 mg/kg/injection, schedule: Q01DX008 (ip), vehicle: water) 207 % of control; (dose: 300.0 mg/kg/injection, schedule: Q01DX008 (ip), vehicle: water) 213 % of control; (dose: 500.0 mg/kg/injection, schedule: Q01DX008 (ip), vehicle: water) 225 % of control.
Turning to `CCCCCCCCCCCCCCCCSCCCCCCCCCCCSCCCCCCCCCCCCCCCC`, the T/C is 90 % of control (dose: 25.0 mg/kg/injection, schedule: Q01DX001 (ip), vehicle: saline sonified) and 90 % of control (dose: 50.0 mg/kg/injection, schedule: Q01DX001 (ip), vehicle: saline sonified).
With `COc1ccccc1NC(=O)Oc1ccc(OCc2ccccc2)cc1`, the T/C by setting is: under setting [7], 95 % of control; under setting [8], 87 % of control; under setting [9], 100 % of control.
For `O=C(O)COc1ccccc1OCC(=O)O`, the T/C by setting is: (dose: 50.0 mg/kg/injection, schedule: Q01DX009 (ip), vehicle: Klucel (hydroxypropylcellulose) (HPC)) 109 % of control; (dose: 100.0 mg/kg/injection, schedule: Q01DX009 (ip), vehicle: Klucel (hydroxypropylcellulose) (HPC)) 100 % of control; (dose: 200.0 mg/kg/injection, schedule: Q01DX009 (ip), vehicle: Klucel (hydroxypropylcellulose) (HPC)) 100 % of control.
`CN=C1C=C(NC)C(F)(F)C1(F)F`: the T/C (dose: 6.25 mg/kg/injection, schedule: Q01DX009 (ip), vehicle: saline with Tween-80) was 95 % of control; the T/C (dose: 12.5 mg/kg/injection, schedule: Q01DX009 (ip), vehicle: saline with Tween-80) was 100 % of control; the T/C (dose: 12.5 mg/kg/injection, schedule: Q04DX003 (ip), vehicle: Klucel (hydroxypropylcellulose) (HPC)) was 100 % of control; the T/C under setting [6] is 100 % of control; the T/C (dose: 25.0 mg/kg/injection, schedule: Q04DX003 (ip), vehicle: Klucel (hydroxypropylcellulose) (HPC)) was 100 % of control.
As to `CC(C)C1NC(=O)C(N)C(C)OC(=O)C(C(C)C)N(C)C(=O)CN(C)C(=O)C2CC(=O)CCN2C1=O` (stereo unspecified) (tested in a mixture with another compound) (H-TV[Pip(4-oxo)][Sar][NMeV]; ester 1-C; configuration not given here), the T/C is, setting by setting: (dose: 50.0 micrograms/kg/injection, schedule: Q01DX009 (ip), vehicle: saline + alcohol) 168 % of control; (dose: 75.0 micrograms/kg/injection, schedule: Q01DX009 (ip), vehicle: saline + alcohol) 203 % of control; (dose: 100.0 micrograms/kg/injection, schedule: Q01DX009 (ip), vehicle: saline + alcohol) 192 % of control; (dose: 150.0 micrograms/kg/injection, schedule: Q01DX009 (ip), vehicle: saline + alcohol) 230 % of control.
As for `Cc1ccc(N=C=O)cc1[N+](=O)[O-]`, the T/C is 100 % of control (dose: 25.0 mg/kg/injection, schedule: Q01DX009 (ip), vehicle: gum acacia); 100 % of control (dose: 50.0 mg/kg/injection, schedule: Q01DX009 (ip), vehicle: gum acacia); 91 % of control (dose: 100.0 mg/kg/injection, schedule: Q04DX003 (ip), vehicle: gum acacia); 95 % of control (dose: 200.0 mg/kg/injection, schedule: Q04DX003 (ip), vehicle: gum acacia); 95 % of control (dose: 400.0 mg/kg/injection, schedule: Q04DX003 (ip), vehicle: gum acacia).
